Key:
Format in all cases: cell-based
human P2X7 channel = molecular target: T1, human P2X7 channel (Homo sapiens, UniProt Q99572); assay: human P2X7 channel assay by automated patch-clamp (QPatch 16X); conditions: HEK-293 cells expressing P2X7; current evoked by 100 microM BzATP; whole-cell, held at -80 mV; read-out: human Q-Patch (activity range)
T1 construct: expressed in transfected cells; host or cells: HEK-293
T1 sequence (Q99572 1-595): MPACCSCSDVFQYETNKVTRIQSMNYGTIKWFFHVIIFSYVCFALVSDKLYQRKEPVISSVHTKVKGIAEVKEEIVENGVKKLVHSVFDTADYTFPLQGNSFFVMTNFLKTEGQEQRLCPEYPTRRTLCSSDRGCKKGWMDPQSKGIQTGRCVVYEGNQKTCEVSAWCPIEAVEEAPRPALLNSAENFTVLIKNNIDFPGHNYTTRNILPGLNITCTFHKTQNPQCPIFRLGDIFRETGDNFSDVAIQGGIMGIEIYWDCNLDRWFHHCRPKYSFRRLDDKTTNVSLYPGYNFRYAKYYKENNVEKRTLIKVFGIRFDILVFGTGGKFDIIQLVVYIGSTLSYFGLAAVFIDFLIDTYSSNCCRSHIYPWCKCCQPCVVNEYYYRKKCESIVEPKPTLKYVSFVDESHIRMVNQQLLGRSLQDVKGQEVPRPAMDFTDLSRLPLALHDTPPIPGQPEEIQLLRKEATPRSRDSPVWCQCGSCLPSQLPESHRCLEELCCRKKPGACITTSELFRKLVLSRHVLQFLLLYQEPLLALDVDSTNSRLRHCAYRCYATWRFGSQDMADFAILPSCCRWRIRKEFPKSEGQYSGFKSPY
Procedure: In order to directly monitor the block of P2X7 channel, an electrophysiological assay was developed and implemented on the QPatchl6X automated electrophysiology instrument.
HEK-293 cells expressing the P2X7 channels were cultured in modified EMEM.
72 hours before experiment, 5 million cells were seeded onto T225 flasks. Just before the experiment cells were washed twice, detached from the flask with trypsin-EDTA, re-suspended in the suspension solution and placed on the QPatch 16x.
The compounds (20 mM in a 100% DMSO) stored at −20° C. were prepared the day of the experiment (a first dilution 1:20 in 100% DMSO to prepare a 1 mM stock solution, then a 1 microM solution in external solution+a serial dilution 1:10).
The standard whole-cell voltage clamp experiments were performed at room temperature. From these experiments the multihole technology was used and the data were sampled at 2 KHz.
The intracellular solution contained (mM) 135 CsF, 10 NaCl, 1 EGTA, 10 HEPES, (pH 7.2 with CsOH) whereas the extracellular contained (mM) 145 NaCl, 4 KCl, 0.5 MgCl2, 1 CaCl2, 10 HEPES, 10 Glc (pH 7.4 with NaOH).
After establishment of the seal and the passage in the whole cell configuration, the cells were held at −80 mV. The P2XR7 current was evoked by applying 100 microM of BzATP alone (4 times) and then in the presence increasing concentrations of the compound under investigation (1, 10, 100 and 1000 nM).
The pre-incubation periods 5 to 8 contain increasing concentrations of the compound of interest (1, 10, 100 and 1000 nM), as illustrated in FIGURE (application protocol).
The maximal inward current evoked by BzATP in absence or presence of increasing concentrations of the compounds under investigation was measured and normalized. The potential […] effect was measured as % of control and as IC50 determined fitting the dose-response curves data with the following equation:
Here are reported the potency ranges as A, B, C and D, where A is <10 nM; B is 10 nM-100 nM, C is 0.1-1 μM, D is 1-10 μM.

humanP2X7 = molecular target: T2, humanP2X7 (Homo sapiens, UniProt Q99572); assay: P2X7 channel calcium-influx assay (Fluo-8, FLIPR TETRA), human P2X7; conditions: HEK-293 cells stably transfected with P2X7; Bz-ATP at EC80; low divalent cation buffer; read-out: humanP2X7 (activity range)
T2 construct: expressed in transfected cells; host or cells: HEK-293
T2 sequence (Q99572 1-595): T1 sequence (Q99572 1-595)
Procedure: (§1) Extracellular binding of Bz-ATP to P2X7 receptor opens the channel and allows Ca^2+ influx into the cells. This Ca^2+ entry was measured in HEK-293 cells stably transfected with P2X7 receptor using Screen Quest™ Fluo-8 No Wash Calcium Assay Kit (AAt Bioquest®, cat. 36316). Once inside the cell, the lipophilic blocking groups of Fluo-8 are cleaved by non-specific cell esterases, resulting in a negatively-charged fluorescent dye that stays inside cells. Its fluorescence increases upon binding to calcium. When HEK-293/P2X7 cells are stimulated with Bz-ATP, Ca^2+ enters the cells and the fluorescence of Fluo-8 NW increases. The dye has an absorption spectrum compatible with excitation at 488 nm by argon laser sources and its emission wavelength is in the range of 515-575 nm.
(§2) HEK-293 cells stably transfected with P2X7 receptor were seeded overnight in growth medium at 10,000 to 20,000 cells/well in 384-well plate. 24 hours later, the medium was removed, and the cells were pre-loaded at RT for 1 hour with 20 μL/w of Fluo-8 NW. Then 10 μL/w of test compounds and reference antagonist A438079 at 3×-concentration were injected with the FLIPRTETRA and the kinetic response over a period of five minutes was monitored. A second injection of 15 μL/w of 3× reference activator (Bz-ATP at EC80) was performed with the FLIPR TETRA and the signal of the emitted fluorescence was recorded for additional three minutes. All the experiment was carried out in a Low Divalent Cation Assay Buffer (0.3 mM Ca^2+ and 0 mM Mg^2+). The effect of the test compounds was measured as percent inhibition vs the reference antagonist and IC50 values were calculated accordingly. Here are reported the potency ranges as A, B, C and D, where A is <200 nM; B is 200 nM-1 μM, C is 1-10 μM, D is 10-30 μM.

mouseP2X7 = molecular target: T3, mouseP2X7 (Mus musculus, UniProt Q9Z1M0); assay: P2X7 channel calcium-influx assay (Fluo-8, FLIPR TETRA), mouse P2X7; conditions: HEK-293 cells stably transfected with P2X7; Bz-ATP at EC80; low divalent cation buffer; read-out: mouseP2X7 (activity range)
T3 construct: expressed in transfected cells; host or cells: HEK-293
T3 sequence (Q9Z1M0 1-595): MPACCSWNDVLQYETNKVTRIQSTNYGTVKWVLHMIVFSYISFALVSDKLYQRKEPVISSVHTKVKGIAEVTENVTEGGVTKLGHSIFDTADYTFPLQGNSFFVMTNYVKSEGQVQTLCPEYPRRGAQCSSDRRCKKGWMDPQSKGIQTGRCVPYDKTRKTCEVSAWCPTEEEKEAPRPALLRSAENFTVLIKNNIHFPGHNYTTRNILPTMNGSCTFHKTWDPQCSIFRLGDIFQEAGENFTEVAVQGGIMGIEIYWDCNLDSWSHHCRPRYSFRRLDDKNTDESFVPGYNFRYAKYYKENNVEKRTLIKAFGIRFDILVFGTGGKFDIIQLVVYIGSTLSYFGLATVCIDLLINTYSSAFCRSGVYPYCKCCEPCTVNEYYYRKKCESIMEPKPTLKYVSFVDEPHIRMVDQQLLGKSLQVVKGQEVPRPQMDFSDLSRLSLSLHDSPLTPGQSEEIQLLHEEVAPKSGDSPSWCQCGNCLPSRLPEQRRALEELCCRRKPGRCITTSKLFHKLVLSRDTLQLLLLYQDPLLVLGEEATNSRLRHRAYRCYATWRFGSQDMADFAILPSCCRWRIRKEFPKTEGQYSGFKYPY
Procedure: as §1, §2

ratP2X7 = molecular target: T4, ratP2X7 (Rattus norvegicus, UniProt Q64663); assay: P2X7 channel calcium-influx assay (Fluo-8, FLIPR TETRA), rat P2X7; conditions: HEK-293 cells stably transfected with P2X7; Bz-ATP at EC80; low divalent cation buffer; read-out: ratP2X7 (activity range)
T4 construct: expressed in transfected cells; host or cells: HEK-293
T4 sequence (Q64663 1-595): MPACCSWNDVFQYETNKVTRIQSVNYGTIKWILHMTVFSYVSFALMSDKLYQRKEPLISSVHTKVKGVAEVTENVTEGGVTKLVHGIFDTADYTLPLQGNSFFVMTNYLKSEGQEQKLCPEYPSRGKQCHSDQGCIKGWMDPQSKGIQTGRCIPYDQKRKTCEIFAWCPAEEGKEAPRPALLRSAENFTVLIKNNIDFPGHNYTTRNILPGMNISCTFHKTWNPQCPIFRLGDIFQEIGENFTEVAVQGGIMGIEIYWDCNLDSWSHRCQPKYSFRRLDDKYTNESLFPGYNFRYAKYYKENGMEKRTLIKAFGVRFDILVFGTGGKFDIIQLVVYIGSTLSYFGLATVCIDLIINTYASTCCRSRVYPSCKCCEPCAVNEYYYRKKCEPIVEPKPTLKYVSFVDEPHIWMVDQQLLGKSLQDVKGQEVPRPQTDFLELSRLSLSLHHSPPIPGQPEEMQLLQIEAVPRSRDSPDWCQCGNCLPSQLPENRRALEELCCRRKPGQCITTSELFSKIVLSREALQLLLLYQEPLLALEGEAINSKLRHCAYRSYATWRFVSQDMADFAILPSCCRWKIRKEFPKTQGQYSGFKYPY
Procedure: as §1, §2

IC50 (human P2X7 channel) | IC50 (humanP2X7) | IC50 (mouseP2X7) | IC50 (ratP2X7) | Compound
10 to 100 nM | < 200 nM | 1000 to 10000 nM | < 200 nM | Cn1nc(Cc2c(F)cccc2Cl)n(CCC2CCC(F)(F)CC2)c1=O [Example 15, 5-(2-chloro-6-fluorobenzyl)-4-(2-(4,4-difluorocyclohexyl)ethyl)-2-methyl-2,4-dihydro-3H-1,2,4-triazol-3-one]
10 to 100 nM | < 200 nM | < 200 nM | < 200 nM | O=c1n(CC(F)F)nc(Cc2c(F)cccc2Cl)n1CC1CCC(F)(F)CC1 [Example 58, 5-[(2-chloro-6-fluorophenyl)methyl]-4-[(4,4-difluorocyclohexyl)methyl]-2-(2,2-difluoroethyl)-2,4-dihydro-3H-1,2,4-triazol-3-one]
10 to 100 nM | < 200 nM | 200 to 1000 nM | < 200 nM | Cn1nc(Cc2c(F)cccc2Cl)n(CC2CCC(F)(F)CC2)c1=O [Example 3, 5-(2-chloro-6-fluorobenzyl)-4-((4,4-difluorocyclohexyl)methyl)-2-methyl-2,4-dihydro-3H-1,2,4-triazol-3-one]
< 10 nM | < 200 nM | < 200 nM | < 200 nM | O=c1n(Cc2ccccc2)nc(Cc2c(F)cccc2Cl)n1CC1CCC(F)(F)CC1 [Example 50, 2-benzyl-5-(2-chloro-6-fluorobenzyl)-4-((4,4-difluorocyclohexyl)methyl)-2,4-dihydro-3H-1,2,4-triazol-3-one]
10 to 100 nM | < 200 nM | < 200 nM | < 200 nM | O=c1n(CCC(F)(F)F)nc(Cc2c(F)cccc2Cl)n1CC1CCC(F)(F)CC1 [Example 57, 5-[(2-chloro-6-fluorophenyl)methyl]-4-[(4,4-difluorocyclohexyl)methyl]-2-(3,3,3-trifluoropropyl)-2,4-dihydro-3H-1,2,4-triazol-3-one]

More lines, now with the values behind:

Compound | IC50 (human P2X7 channel) | IC50 (humanP2X7) | IC50 (mouseP2X7) | IC50 (ratP2X7)
Cn1nc(Cc2ccccc2Cl)n(CC2CCC(F)(F)CC2)c1=O [Example 42, 5-(2-chlorobenzyl)-4-((4,4-difluorocyclohexyl)methyl)-2-methyl-2,4-dihydro-3H-1,2,4-triazol-3-one] | 10 to 100 nM | < 200 nM | 200 to 1000 nM | < 200 nM
Cn1nc(Cc2ccccc2C(F)(F)F)n(CC2CCCCCC2)c1=O [Example 28, 4-(cycloheptylmethyl)-2-methyl-5-(2-(trifluoromethyl)benzyl)-2,4-dihydro-3H-1,2,4-triazol-3-one] | 100 to 1000 nM | 200 to 1000 nM | 1000 to 10000 nM | < 200 nM
Cn1nc(Cc2c(F)cccc2Cl)n(CC2CCCCC2)c1=O [Example 2, 5-(2-chloro-6-fluorobenzyl)-4-(cyclohexylmethyl)-2-methyl-2,4-dihydro-3H-1,2,4-triazol-3-one] | < 10 nM | 200 to 1000 nM | 200 to 1000 nM | < 200 nM
Cn1nc(Cc2ccccc2C(F)(F)F)n(CC2CCC(C(F)(F)F)CC2)c1=O (stereo not drawn) [Example 40, 2-methyl-5-(2-(trifluoromethyl)benzyl)-4-((4-(trifluoromethyl)cyclohexyl)methyl)-2,4-dihydro-3H-1,2,4-triazol-3-one] | 100 to 1000 nM | < 200 nM | 1000 to 10000 nM | < 200 nM
Cn1nc(Cc2c(F)cccc2Cl)n(CC2CCC3(CC2)CC3)c1=O [Example 14, 5-(2-chloro-6-fluorobenzyl)-2-methyl-4-(spiro[2.5]octan-6-ylmethyl)-2,4-dihydro-3H-1,2,4-triazol-3-one] | < 10 nM | < 200 nM | < 200 nM | < 200 nM
Cn1nc(Cc2ccccc2C(F)(F)F)n(CC2CCC3(CC2)CC3)c1=O [Example 48, 2-methyl-4-(spiro[2.5]octan-6-ylmethyl)-5-(2-(trifluoromethyl)benzyl)-2,4-dihydro-3H-1,2,4-triazol-3-one] | 100 to 1000 nM | 200 to 1000 nM | 1000 to 10000 nM | < 200 nM
Cn1nc(CC2CCCCC2)n(Cc2ccccc2C(F)(F)F)c1=O [Example 25, 5-(cyclohexylmethyl)-2-methyl-4-(2-(trifluoromethyl)benzyl)-2,4-dihydro-3H-1,2,4-triazol-3-one] | 100 to 1000 nM | 1000 to 10000 nM | 10000 to 30000 nM | 1000 to 10000 nM
